We go through 3 compounds from ChEMBL document CHEMBL5696442, “Discovery of type II inhibitors of TGFβ-activated kinase 1 (TAK1) and mitogen-activated protein kinase kinase kinase kinase 2 (MAP4K2)” (J Med Chem, 2015).

In test [1] the target is T1, Mitogen-activated protein kinase kinase kinase 15 (Homo sapiens) (UniProt Q6ZN16).
T1 sequence (whole entry): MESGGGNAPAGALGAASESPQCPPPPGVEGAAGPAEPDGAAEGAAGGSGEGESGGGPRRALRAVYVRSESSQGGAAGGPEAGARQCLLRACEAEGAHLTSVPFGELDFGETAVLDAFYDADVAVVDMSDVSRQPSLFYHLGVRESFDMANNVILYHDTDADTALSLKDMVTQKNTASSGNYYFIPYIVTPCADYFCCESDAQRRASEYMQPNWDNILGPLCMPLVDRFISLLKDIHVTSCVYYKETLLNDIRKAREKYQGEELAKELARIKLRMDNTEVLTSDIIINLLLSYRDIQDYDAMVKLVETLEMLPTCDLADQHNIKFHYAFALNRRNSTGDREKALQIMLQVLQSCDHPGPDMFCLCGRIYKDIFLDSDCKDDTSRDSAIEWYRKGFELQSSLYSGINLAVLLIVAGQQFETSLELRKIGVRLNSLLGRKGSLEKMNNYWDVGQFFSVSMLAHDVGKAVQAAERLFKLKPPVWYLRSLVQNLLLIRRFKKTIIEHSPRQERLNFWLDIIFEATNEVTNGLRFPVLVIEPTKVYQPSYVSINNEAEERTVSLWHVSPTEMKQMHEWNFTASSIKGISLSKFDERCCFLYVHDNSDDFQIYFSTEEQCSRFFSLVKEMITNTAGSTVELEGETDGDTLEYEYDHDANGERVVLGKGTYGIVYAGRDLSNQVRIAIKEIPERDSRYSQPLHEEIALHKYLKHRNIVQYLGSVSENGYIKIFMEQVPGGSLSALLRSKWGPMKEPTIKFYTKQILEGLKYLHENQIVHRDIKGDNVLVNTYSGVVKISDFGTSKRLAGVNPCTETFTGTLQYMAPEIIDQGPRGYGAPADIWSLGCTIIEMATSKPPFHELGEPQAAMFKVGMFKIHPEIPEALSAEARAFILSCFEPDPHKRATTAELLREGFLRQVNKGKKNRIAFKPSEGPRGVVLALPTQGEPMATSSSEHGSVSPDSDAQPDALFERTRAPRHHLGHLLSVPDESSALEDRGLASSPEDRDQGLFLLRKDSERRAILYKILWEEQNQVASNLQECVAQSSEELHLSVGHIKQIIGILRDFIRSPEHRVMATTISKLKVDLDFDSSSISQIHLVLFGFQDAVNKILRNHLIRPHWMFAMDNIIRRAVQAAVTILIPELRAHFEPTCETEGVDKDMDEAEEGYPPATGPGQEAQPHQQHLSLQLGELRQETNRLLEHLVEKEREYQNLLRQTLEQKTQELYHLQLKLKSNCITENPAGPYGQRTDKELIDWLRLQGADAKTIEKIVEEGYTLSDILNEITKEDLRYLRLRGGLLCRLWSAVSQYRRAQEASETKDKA
The experiment in a line: Inhibition of MAP3K15 (unknown origin) at 1 uM by Ambit Kinomescan binding assay relative to control; values are per cent of control.

Test [2] deals with MAP kinase-activated protein kinase 2 (Homo sapiens) (UniProt P49137). The experiment in a line: Inhibition of MAPKAPK2 (unknown origin) at 10 uM by Ambit Kinomescan binding assay.
The test system of test [3] is MEF. Nature of the test: Inhibition of IL-1alpha induced p105 phosphorylation level in mouse MEF cells preincubated for 1 hr followed by IL-1 alpha stimulation and measured after 30 mins by Western blot analysis. It counts as functional, cell-based. The note with it: dose 0.01-10 µM. (In general: Immunoblotting shows a protein as a band on a membrane.)
Test [4] has as its target Proto-oncogene tyrosine-protein kinase Src (Homo sapiens, UniProt P12931). Nature of the test: Inhibition of SRC ACT labeling site in human Huh-7 cells at 1 uM by KiNativ Profiling analysis relative to control. It is filed as cell-based.
Test [5] concerns the target T2, Serine/threonine-protein kinase Nek1 (Homo sapiens) (UniProt Q96PY6).
T2 sequence (whole entry): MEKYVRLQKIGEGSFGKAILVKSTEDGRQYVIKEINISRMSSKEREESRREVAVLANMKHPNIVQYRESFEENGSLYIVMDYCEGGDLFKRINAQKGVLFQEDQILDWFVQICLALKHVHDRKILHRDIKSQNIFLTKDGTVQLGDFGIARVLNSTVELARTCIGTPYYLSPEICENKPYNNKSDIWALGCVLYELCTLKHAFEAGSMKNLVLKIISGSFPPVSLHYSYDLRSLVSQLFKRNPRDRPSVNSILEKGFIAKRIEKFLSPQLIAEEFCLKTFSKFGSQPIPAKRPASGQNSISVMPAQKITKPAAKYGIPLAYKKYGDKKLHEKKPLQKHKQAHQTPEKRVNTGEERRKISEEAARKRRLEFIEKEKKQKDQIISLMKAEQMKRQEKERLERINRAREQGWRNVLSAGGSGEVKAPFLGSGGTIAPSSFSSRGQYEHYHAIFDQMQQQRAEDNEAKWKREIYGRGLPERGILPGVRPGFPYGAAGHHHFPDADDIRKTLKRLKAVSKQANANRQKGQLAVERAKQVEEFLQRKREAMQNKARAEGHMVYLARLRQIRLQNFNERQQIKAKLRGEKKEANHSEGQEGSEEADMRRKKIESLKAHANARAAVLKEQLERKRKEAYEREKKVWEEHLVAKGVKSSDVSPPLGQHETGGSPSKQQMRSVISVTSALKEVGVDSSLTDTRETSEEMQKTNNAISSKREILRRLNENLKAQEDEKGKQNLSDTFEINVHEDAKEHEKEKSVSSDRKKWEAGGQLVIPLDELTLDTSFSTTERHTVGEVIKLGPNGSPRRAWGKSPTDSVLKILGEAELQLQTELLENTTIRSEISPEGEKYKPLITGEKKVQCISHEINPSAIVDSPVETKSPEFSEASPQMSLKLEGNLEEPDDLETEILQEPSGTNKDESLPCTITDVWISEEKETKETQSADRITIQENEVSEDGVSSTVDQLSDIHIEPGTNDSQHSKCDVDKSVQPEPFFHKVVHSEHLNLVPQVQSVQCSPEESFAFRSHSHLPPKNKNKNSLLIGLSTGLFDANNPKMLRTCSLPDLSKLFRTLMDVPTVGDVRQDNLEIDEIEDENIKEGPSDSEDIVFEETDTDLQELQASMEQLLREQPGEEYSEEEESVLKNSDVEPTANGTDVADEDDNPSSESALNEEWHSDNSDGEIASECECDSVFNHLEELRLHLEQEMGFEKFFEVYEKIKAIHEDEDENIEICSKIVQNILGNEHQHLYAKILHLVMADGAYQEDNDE
Nature of the test: Inhibition of NEK1 (unknown origin) at 10 uM by Ambit Kinomescan binding assay.

For test [6], the target named is Insulin-like growth factor 1 receptor (Homo sapiens) (UniProt P08069). The experiment in a line: Inhibition of IGF1R (unknown origin) at 10 uM by Ambit Kinomescan binding assay.
For test [7], the target named is Cyclin-dependent kinase 5 (Homo sapiens) (UniProt Q00535). Nature of the test: Inhibition of CDK5 Lys2 labeling site harbouring NVLHRDLKPQNLLINR in human Huh-7 cell lysate at 1 uM by KiNativ Profiling analysis relative to control. It counts as subcellular.

Structures are written as SMILES. Calls of active or inactive are those of the source. The rule behind the calls is not given here.

Cyclin-dependent kinase 5 (Homo sapiens), sequence (Q00535 whole entry, looked up): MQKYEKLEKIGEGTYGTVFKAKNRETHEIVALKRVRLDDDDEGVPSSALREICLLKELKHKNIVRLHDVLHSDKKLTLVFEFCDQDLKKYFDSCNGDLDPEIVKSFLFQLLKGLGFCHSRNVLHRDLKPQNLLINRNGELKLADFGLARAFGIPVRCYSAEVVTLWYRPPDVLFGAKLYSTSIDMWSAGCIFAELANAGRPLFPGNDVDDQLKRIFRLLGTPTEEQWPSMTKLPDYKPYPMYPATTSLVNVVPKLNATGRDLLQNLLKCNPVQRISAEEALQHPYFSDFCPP
Insulin-like growth factor 1 receptor (Homo sapiens), sequence (P08069 31-736 limits assumed): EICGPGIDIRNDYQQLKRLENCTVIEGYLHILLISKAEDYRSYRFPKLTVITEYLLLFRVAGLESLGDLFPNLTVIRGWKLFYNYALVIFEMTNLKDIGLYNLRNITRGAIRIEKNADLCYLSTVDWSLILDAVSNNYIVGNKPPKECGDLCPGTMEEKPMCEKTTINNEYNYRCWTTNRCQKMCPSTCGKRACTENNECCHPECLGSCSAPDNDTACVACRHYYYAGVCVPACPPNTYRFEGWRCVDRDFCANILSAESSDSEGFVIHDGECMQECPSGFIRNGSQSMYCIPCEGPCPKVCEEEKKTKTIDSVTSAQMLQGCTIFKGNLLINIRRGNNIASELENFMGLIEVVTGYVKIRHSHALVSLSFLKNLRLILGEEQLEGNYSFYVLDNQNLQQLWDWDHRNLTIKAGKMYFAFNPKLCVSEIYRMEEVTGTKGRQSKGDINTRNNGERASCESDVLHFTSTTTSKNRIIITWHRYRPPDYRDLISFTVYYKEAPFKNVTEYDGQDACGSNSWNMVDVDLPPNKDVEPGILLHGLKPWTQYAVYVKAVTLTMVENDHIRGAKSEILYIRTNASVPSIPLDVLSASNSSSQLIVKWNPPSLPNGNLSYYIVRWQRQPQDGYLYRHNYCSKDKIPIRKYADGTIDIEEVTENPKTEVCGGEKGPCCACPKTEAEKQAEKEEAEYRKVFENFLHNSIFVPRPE
Insulin-like growth factor 1 receptor (Homo sapiens), sequence (P08069 741-1367 limits assumed): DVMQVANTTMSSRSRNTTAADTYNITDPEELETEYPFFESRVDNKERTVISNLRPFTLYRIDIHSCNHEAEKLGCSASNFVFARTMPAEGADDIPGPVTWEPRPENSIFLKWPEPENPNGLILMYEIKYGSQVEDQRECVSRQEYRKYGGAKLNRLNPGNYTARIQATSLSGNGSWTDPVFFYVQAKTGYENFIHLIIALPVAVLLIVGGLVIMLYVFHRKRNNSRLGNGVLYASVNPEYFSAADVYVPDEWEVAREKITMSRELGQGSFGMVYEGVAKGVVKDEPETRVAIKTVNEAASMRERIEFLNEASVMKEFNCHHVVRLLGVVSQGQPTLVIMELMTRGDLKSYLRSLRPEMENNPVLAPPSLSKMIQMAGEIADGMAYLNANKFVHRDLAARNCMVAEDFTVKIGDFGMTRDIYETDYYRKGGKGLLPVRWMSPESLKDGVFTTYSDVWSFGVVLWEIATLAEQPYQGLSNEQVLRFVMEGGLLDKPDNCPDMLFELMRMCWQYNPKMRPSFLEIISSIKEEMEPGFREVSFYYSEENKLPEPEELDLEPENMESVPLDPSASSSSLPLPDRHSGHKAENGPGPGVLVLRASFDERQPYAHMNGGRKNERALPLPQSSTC
Proto-oncogene tyrosine-protein kinase Src, sequence (P12931 2-536 limits assumed): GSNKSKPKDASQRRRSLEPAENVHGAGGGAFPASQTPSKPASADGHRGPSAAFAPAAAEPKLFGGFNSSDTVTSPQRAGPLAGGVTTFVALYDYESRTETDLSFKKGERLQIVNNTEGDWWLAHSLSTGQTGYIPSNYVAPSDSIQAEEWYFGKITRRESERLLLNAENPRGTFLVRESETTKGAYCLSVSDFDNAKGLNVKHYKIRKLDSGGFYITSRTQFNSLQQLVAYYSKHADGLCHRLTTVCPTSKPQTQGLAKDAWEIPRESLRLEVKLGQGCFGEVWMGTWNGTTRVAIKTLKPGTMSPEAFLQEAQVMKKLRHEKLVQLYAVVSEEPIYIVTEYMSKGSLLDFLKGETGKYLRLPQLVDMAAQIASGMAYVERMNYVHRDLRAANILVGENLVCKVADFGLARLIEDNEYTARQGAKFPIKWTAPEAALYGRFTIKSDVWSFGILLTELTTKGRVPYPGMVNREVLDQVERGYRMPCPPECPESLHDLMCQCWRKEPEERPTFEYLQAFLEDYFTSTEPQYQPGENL
MAP kinase-activated protein kinase 2 (Homo sapiens), sequence (P49137 whole entry, looked up): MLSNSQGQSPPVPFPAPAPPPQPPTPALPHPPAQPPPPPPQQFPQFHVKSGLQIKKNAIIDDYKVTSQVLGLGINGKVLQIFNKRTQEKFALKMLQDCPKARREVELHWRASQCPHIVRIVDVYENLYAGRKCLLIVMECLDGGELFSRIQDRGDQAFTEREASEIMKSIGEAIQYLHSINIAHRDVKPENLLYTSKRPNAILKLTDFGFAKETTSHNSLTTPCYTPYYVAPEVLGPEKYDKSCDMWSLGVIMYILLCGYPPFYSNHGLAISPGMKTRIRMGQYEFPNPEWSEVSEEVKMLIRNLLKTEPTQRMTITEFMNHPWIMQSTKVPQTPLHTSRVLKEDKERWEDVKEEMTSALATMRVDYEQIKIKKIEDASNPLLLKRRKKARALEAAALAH

Regarding `CCN1CCN(Cc2ccc(NC(=O)c3ccc(C)c(/C=C/c4cnc5[nH]ccc5c4OC)c3)cc2C(F)(F)F)CC1`, the residual activity in test [1] came to 100%.
One may read the inhibition as the drop in the measured response relative to a control, in per cent. As to `CCN1CCN(Cc2ccc(NC(=O)c3ccc(C)c(Oc4ccnc5[nH]ccc45)c3)cc2C(F)(F)F)CC1`, the inhibition entry in test [2], in test [5] and in test [6] was “inactive” in each case. In addition, the inhibition result in test [3] was “Dose-Dependent Effect”; in test [4], -0.3%.
As to `CNc1cc(Oc2cc(C(=O)Nc3cc(N4CCN(C)CC4)cc(C(F)(F)F)c3)ccc2C)ncn1`, the inhibition in test [7] turned out to be 22.5%.
